Data published in publication PMC10492809, “A Bischler-Napieralski and homo-Mannich sequence enables diversified syntheses of sarpagine alkaloids and analogues” (Nature Communications, 2023).
Several values for one entry are separate records, joined by “and”; a condition that tells them apart may be missing. Identical values can stand only once. Like-named read-outs stand apart in the source and are kept apart here.

How the values were obtained:
Assay type in all cases: cell-based
MDA-MB-231 = assay: MTT cell viability assay, MDA-MB-231
Description: (§1) All cell lines were cultured at 37 °C with 5% CO2 in a humidified incubator. HeLa cells were grown in MEM (Gibco) supplemented with 10% fetal bovine serum (FBS, Hyclone) and 1% penicillin/streptomycin (Gibco). MIA PaCa-2, MDA-MB-231, A549, MCF-7, A375 and BEAS-2B cells were grown in DMEM (Gibco) supplemented with 10% FBS and 1% penicillin/streptomycin. CT26, and HCT116 cells were grown in RPMI-1640 supplemented with 10% FBS and 1% penicillin/streptomycin. All cell lines were purchased from the National Collection of Authenticated Cell Cultures (China).
(§2) The antiproliferative activities of the prepared compounds against tested cell lines were evaluated using a standard (MTT)-based colorimetric assay. Cells were plated at a density of 3000 cells/well in 96-well plates and allowed to adhere overnight. Then cells were treated with varying concentrations of synthesized compounds for 72 h. At the end of treatment, 20 μL of thiazolyl blue tetrazolium bromide (MTT) solution (5 mg/mL) was added to each well. Cells were incubated for an additional 4 h at 37 °C and then the medium was removed and replaced with 200 μL of DMSO. The absorbance (OD490) was read on a microplate reader (SpectraMax i3x, Molecular Devices, US). In all experiments, three replicate wells were used for each drug concentration. Each assay was performed at least three times. The IC50 values were calculated by GraphPad Prism 9, which were the mean values derived from three independent experiments.

HCT 116 = assay: MTT cell viability assay, HCT 116
Description: as §1, §2

MDA-MB-231 cells [1] = assay: Transmission electron microscopy of cell morphology; settings: 15ai 4 μM, 24 h
Description: Cells were plated at a density of 6 × 10^5 cells/dish in 10 cm culture dishes and allowed to adhere overnight. Then cells were treated with DMSO or compound 15ai for 24 h. Cells were fixed with 2.5% glutaraldehyde in […] phosphate buffer, followed by 1% OsO4 for 2 h. After dehydration, cells were embedded in epoxy resin. The ultrathin sections were made by an ultramicrotome and then stained with lead citrate and uranyl acetate. Images were acquired using the transmission electron microscope (Hitachi H-7650 100kv, Hitachi, Japan). Each experiment was repeated three times independently with similar results.

SLC7A11 = assay: Western blotting, SLC7A11 protein expression; settings: 15ai 0, 2, 4 and 8 μM, 24 h
Description: Cells on 6-well plates were rinsed twice with cold PBS and lysed in RIPA lysis buffer (50 mM Tris (pH 7.4), 150 mM NaCl, 1% Triton X-100, 1% deoxycholicphenyl methylsulfonyl fluoride, 5.0 mM sodium pyrophosphate, […] leupeptin, 0.1 mM phenylmethylsulfonyl fluoride, and1 mM DTT) containing a protease inhibitor (PMSF) mixture at 1:100 dilution on ice for 30 min. The insoluble components of cell lysates were removed by centrifugation (4 °C, 12000 × g, 10 min), and protein concentrations were measured using a Pierce BCA protein assay kit. Proteins were separated by sodium dodecyl sulfate-polyacrylamide gel electrophoresis (SDS-PAGE) and transferred onto polyvinylidene difluoride (PVDF) membranes. Membranes were blocked using 5% skim milk in TBST and then incubated with diluted indicated primary antibodies: anti-GPX4 (1:1000 dilution, Proteintech, Cat No: 30388-1-AP), anti-SLC7A11 (1:1000 dilution, ABclonal, Cat No: A13685), anti-GAPDH (1:1000 dilution, Wanlei, Cat No: WL01114) at 4 °C with gentle shaking overnight. After washing five times (5 min each) with TBST, membranes were incubated with the HRP conjugated goat anti rabbit IgG (H + L) (1:5000 dilution, Wanlei, Cat No: WLA023) for 1 h at rt. Immunoreactive bands were visualized using an ECL detection kit (Wanlei, Cat No: WLA006) following the manufacturer’s instruction on the ChemiDoc system (BioRad, Shanghai, China).

MDA-MB-231 cells [2] = assay: Cell death manner assay (MTT, co-incubation with cell death inhibitors)
Description: [The source words this procedure for another cell line and reports this cell line under the same test.] To investigate the mechanism of 15ai in cancer cell proliferation inhibition, the manners of cell death were analyzed. The cell apoptosis inhibitor Z-VAD-FMK (Z-VAD), cell necrosis inhibitor Necrostatin-1 (Necro-1), ferroptosis inhibitor Ferrostatin-1 (Fer-1), and ROS inhibitor N-acetylcysteine (NAC) were purchased and stored at −20 °C. A375 cells were seeded with a density of 5000 cells/100 µL/well into 96 well plates. After 12 h, 15ai was added at different concentrations. Following that 10 µM Z-VAD, 10 µM Nerco-1, 10 µM Fer-1, and 5 mM NAC were added and co-incubated with 15ai, respectively, for 72 h. Then, 20 µL MTT solution (5 mg/mL) was added and incubated at 37 °C for an additional 4 h. Then, the supernatant was discarded, and 200 μL DMSO was added to dissolve the precipitate. After 15 min, the absorbance (OD490) was read on a microplate reader (SpectraMax i3x, Austria). In all experiments, three replicate wells were used for each drug concentration. Each assay was performed at least three times.

A549 = assay: MTT cell viability assay, A549
Description: as §1, §2

A375 = assay: MTT cell viability assay, A375
Description: as §1, §2

`C=C=C1CN2[C@H]3C[C@H]1[C@H](C=O)[C@@H]2Cc1c3n(S(=O)(=O)c2ccc(C)cc2)c2ccc(Cl)cc12` [Compound 15ai] was tested, and the IC50 (MDA-MB-231; Homo sapiens, MDA-MB-231, 72 h, MTT, 72 h, mean of at least three independent experiments, read-out: IC50 MDA-MB-231) was 2030 nM, the IC50 (MDA-MB-231; Homo sapiens, MDA-MB-231, source data sheet, single values of three experiments, read-out: MTT IC50 MDA-MB-231) was 1680 nM and the IC50 (MDA-MB-231; source data sheet, single values of three experiments, read-out: MTT IC50 MDA-MB-231) was 2110 nM and 2310 nM. The IC50 (HCT 116; Homo sapiens, HCT-116, 72 h, MTT, 72 h, mean of at least three independent experiments, read-out: IC50 HCT 116) was 4.78 µM, the IC50 (HCT 116; Homo sapiens, HCT-116, source data sheet, single values of three experiments, read-out: MTT IC50 HCT-116) was 6.28 µM and the IC50 (HCT 116; source data sheet, single values of three experiments, read-out: MTT IC50 HCT-116) was 3.83 µM and 4.24 µM. The “cell morphology by TEM” value (MDA-MB-231 cells [1]) was “mitochondrial swelling occurred”, the SLC7A11 level (SLC7A11) was “dose-dependently decreased” and the viability at 10 µM (MDA-MB-231 cells [2]; Homo sapiens, MDA-MB-231, 72 h, read-out: Percentage of viability, Fer-1 / NAC experiment, 15ai 10 μM, Fer-1 10 μM, NAC 5 mM, 72 h, single replicates) was 21.2%. The “reversal of 15ai-induced cell death by Z-VAD or Necro-1” value (MDA-MB-231 cells [2]; MDA-MB-231 cells, addition of apoptosis inhibitor Z-VAD-FMK or necroptosis inhibitor necrostatin-1) was “could not reverse cell death”, the “rescue of cell viability by Fer-1 or NAC” value (MDA-MB-231 cells [2]; co-existence of ferroptosis inhibitor Fer-1 or ROS inhibitor NAC) was “remarkably rescued cell viability” and the IC50 (A549; Homo sapiens, A549, 72 h, MTT, 72 h, mean of at least three independent experiments, read-out: IC50 A549) was 13 µM. The IC50 (A549; Homo sapiens, A549, source data sheet, single values of three experiments, read-out: MTT IC50 A549) was 14.6 µM, the IC50 (A549; source data sheet, single values of three experiments, read-out: MTT IC50 A549) was 12.5 µM and 11.8 µM and the IC50 (A375; Homo sapiens, A-375, 72 h, MTT, 72 h, mean of at least three independent experiments, read-out: IC50 A375) was 2640 nM. For the same compound, the IC50 (A375; Homo sapiens, A-375, source data sheet, single values of three experiments, read-out: MTT IC50 A375) was 2780 nM and the IC50 (A375; source data sheet, single values of three experiments, read-out: MTT IC50 A375) was 1960 nM and 3180 nM.
